The target in the assay is cystic fibrosis transmembrane conductance regulator (CFTR) (Homo sapiens, UniProt P13569). In words: apical chloride current. In kind it is cell-based.
Sequence of cystic fibrosis transmembrane conductance regulator (CFTR) (P13569 whole entry): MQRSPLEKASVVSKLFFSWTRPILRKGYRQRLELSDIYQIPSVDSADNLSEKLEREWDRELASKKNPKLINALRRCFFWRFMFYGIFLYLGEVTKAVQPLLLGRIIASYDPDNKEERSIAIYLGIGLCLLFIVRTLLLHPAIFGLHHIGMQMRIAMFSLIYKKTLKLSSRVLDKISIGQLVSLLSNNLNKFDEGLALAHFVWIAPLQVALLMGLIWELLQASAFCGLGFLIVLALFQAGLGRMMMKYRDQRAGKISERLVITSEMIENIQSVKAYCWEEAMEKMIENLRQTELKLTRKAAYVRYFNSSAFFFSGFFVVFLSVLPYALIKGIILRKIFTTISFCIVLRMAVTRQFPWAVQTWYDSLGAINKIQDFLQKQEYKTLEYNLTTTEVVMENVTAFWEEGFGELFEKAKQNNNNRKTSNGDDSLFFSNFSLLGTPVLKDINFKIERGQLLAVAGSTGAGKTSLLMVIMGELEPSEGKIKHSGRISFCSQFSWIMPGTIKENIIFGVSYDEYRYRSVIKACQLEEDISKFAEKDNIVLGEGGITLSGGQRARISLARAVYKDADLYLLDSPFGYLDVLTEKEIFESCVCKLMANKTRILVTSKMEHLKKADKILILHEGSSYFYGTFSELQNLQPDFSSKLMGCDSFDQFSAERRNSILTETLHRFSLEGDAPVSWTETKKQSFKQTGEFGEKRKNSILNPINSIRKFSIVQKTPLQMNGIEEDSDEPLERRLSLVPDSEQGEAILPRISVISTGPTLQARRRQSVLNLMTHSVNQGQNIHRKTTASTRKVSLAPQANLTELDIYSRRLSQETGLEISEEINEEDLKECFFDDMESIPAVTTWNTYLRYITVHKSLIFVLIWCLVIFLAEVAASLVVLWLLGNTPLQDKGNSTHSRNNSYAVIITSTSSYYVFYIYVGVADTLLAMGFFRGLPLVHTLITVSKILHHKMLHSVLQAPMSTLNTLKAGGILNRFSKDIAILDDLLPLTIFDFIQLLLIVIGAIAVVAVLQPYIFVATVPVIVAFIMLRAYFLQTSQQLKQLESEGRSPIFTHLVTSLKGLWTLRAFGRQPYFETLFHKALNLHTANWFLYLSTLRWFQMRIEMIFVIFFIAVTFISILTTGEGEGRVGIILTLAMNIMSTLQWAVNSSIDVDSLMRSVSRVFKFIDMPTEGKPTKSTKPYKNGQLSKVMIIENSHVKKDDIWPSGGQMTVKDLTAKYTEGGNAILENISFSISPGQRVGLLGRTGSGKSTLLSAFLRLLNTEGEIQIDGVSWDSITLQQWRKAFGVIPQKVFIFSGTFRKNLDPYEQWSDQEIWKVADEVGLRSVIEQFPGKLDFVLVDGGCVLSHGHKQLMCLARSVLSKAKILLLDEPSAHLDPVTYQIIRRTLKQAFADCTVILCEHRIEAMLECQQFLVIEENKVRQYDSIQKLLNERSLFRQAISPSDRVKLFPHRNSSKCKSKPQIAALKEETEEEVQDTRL

As usually defined, the IC50 is the concentration at which inhibition is half-maximal. Low readings indicate inhibition by little substance, high ones a need for much substance. In turn, `CCOC(=O)CSc1nc2ccccc2c(=O)n1-c1ccccc1C` [DQA, ethyl 2-(4-oxo-3-o-tolyl-3,4-dihydroquinazolin-2-ylthio)acetate] had an IC50 of approximately 20 µM.

The record behind these values is paper PMC3480796 (Indian Journal of Pharmacology, 2012).
